The values below come from article PMC8429421, “Structural basis for the tryptophan sensitivity of TnaC-mediated ribosome stalling” (Nature Communications, 2021).

Each structure is given as a SMILES string.

This experiment has as its target T1, TnaC–ribosome complex (TnaC–70S) (Escherichia coli, UniProt P0AD89+P61175).
T1 construct: nascent 24-residue TnaC as peptidyl-tRNA(Pro) in E. coli 70S ribosome; L-Trp site formed by TnaC, uL22 Lys90 and 23S rRNA (Psi746, G748, A752, U2609); cell-free translation (PURExpress; RTS100 HY for cryo-EM)
In words: toeprinting of stalled ribosomes in reconstituted cell-free translation, hyperbolic fit; cryo-EM structure […] Å. In kind it is biochemical. As to conditions: PURExpress lacking amino acids, other 19 amino acids 0.3 mM each, 37 °C, 30 min; arrest at codon 24; apparent functional value, not an equilibrium constant; read-out: [L-Trp]0.5.

T1 sequence (P0AD89 whole entry, one chain of several): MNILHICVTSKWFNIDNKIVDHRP

`N[C@@H](Cc1c[nH]c2ccccc12)C(=O)O` [L-Trp]: the EC50 amounted to 320 µM.
